System: TNF-α secretion from LPS-stimulated PBMC
Experiment: TNF-α secretion from LPS-stimulated PBMC with p38 inhibitor loaded in the outer compartment (ELISA)
Format: cell-based, human
Conditions: outer compartments loaded with 10.99 ng, 109.9 ng or 1099 ng, 1×10^6 PBMC on inner compartment, LPS 10 ng/ml overnight
Experimental: Outer compartments were made from a composite matrix similar to the one prepared in Example 3. The compartments were loaded with three different amounts (10.99 ng, 109.9 ng, or 1099 ng) of p38 kinase inhibitor (JNJ 3026582, also known as RWJ 67657). The chemical structure of this compound (4-[4-(4-fluorophenyl)-1-(3-phenylpropyl)-5-44-pyridinyl)-1H-imidazol-2-yl]-3-butyn-1-ol) has been previously documented (Wadsworth et al., J. Pharm. Exp. Ther 291:680-687, 1999).
The inner compartments were prepared from a non-woven Vicryl® fibrous matrix fabricated as described in Example 2. Mononuclear cells were freshly isolated from human peripheral blood, counted and adjusted to a final cell number in RPMI-1640 (Invitrogen Life Technologies, Carlsbad, Calif.) with 1% fetal bovine serum (FBS, HyClone, Logan, UT). A total of 1×10^6 cells in a final volume of 50ul were seeded onto the inner compartments.
The two compartments were combined and pre-cultured for 1 hour in a 24-well plate with 0.5 ml culture medium. A stimulus of LPS (lipopolysaccharide) (10 ng/ml; Sigma, St. Louis, Mo.) was added to each well and incubated overnight at 37° C., 5%CO2. Supernatant from each well was collected and analyzed for TNF-α content using a standard commercial ELISA kit (R&D Systems, Minneapolis, Minn.). […]

With `OCCC#Cc1nc(-c2ccc(F)cc2)c(-c2ccncc2)n1CCCc1ccccc1` [RWJ 67657] the “inhibition of TNF-α secretion” value was “dose dependent inhibition” and the “inhibition of TNF-α secretion” value (listed as p38 inhibitor) was “inhibited in a dose-dependent manner”.
